Laboratory results published in the NIST ThermoML archive (doi:10.1021/je050367p).
Numbers after ± are expanded uncertainties.

What was measured:
[1] = xn = mol fraction of the nth substance listed; conditions: 100.8 kPa, Liquid; for viscosity: Capillary tube (Ostwald / Ubbelohde) method
[2] = refractive index (Na D-line) (dimensionless); xn = mol fraction of the nth substance listed; conditions: 100.8 kPa, Liquid, Standard Abbe refractometry

CC(C)CC(C)(C)C [2,2,4-trimethylpentane] + CCO
Conditions	mass density, 288.15 K [kg/m3]	mass density, 298.15 K [kg/m3]	mass density, 308.15 K [kg/m3]	refractive index, 288.15 K	refractive index, 298.15 K	refractive index, 308.15 K	viscosity, 288.15 K [mPa·s]	viscosity, 298.15 K [mPa·s]	viscosity, 308.15 K [mPa·s]
[1], x2 = 0	695.95 ± 0.31	687.74 ± 0.31	679.41 ± 0.32	–	–	–	0.537 ± 0.005	0.48 ± 0.004	0.432 ± 0.004
[1], x2 = 0.0502	697.2 ± 0.31	688.84 ± 0.31	680.36 ± 0.32	–	–	–	0.532 ± 0.005	0.473 ± 0.004	0.424 ± 0.004
[1], x2 = 0.1	698.76 ± 0.31	690.33 ± 0.31	681.76 ± 0.32	–	–	–	0.535 ± 0.005	0.476 ± 0.004	0.426 ± 0.004
[1], x2 = 0.15	700.55 ± 0.3	692.11 ± 0.31	683.52 ± 0.32	–	–	–	0.542 ± 0.005	0.48 ± 0.004	0.429 ± 0.004
[1], x2 = 0.2	702.53 ± 0.3	694.07 ± 0.31	685.43 ± 0.31	–	–	–	0.551 ± 0.005	0.487 ± 0.004	0.434 ± 0.004
[1], x2 = 0.25	704.71 ± 0.3	696.21 ± 0.31	687.56 ± 0.31	–	–	–	0.564 ± 0.005	0.497 ± 0.004	0.441 ± 0.004
[1], x2 = 0.3	707.1 ± 0.3	698.57 ± 0.3	689.88 ± 0.31	–	–	–	0.58 ± 0.005	0.51 ± 0.005	0.451 ± 0.004
[1], x2 = 0.35	709.71 ± 0.3	701.17 ± 0.3	692.45 ± 0.31	–	–	–	0.601 ± 0.005	0.526 ± 0.005	0.462 ± 0.004
[1], x2 = 0.4	712.6 ± 0.29	704.03 ± 0.3	695.3 ± 0.31	–	–	–	0.625 ± 0.005	0.543 ± 0.005	0.476 ± 0.004
[1], x2 = 0.45	715.8 ± 0.29	707.2 ± 0.3	698.44 ± 0.3	–	–	–	0.652 ± 0.006	0.565 ± 0.005	0.492 ± 0.004
[1], x2 = 0.5	719.31 ± 0.29	710.68 ± 0.29	701.91 ± 0.3	–	–	–	0.682 ± 0.006	0.588 ± 0.005	0.51 ± 0.004
[1], x2 = 0.55	723.22 ± 0.28	714.59 ± 0.29	705.8 ± 0.3	–	–	–	0.718 ± 0.006	0.615 ± 0.005	0.531 ± 0.005
[1], x2 = 0.6	727.55 ± 0.28	718.9 ± 0.29	710.11 ± 0.29	–	–	–	0.755 ± 0.006	0.645 ± 0.006	0.554 ± 0.005
[1], x2 = 0.65	732.37 ± 0.28	723.73 ± 0.28	714.93 ± 0.29	–	–	–	0.797 ± 0.007	0.677 ± 0.006	0.58 ± 0.005
[1], x2 = 0.7	737.81 ± 0.27	729.14 ± 0.28	720.34 ± 0.29	–	–	–	0.843 ± 0.007	0.715 ± 0.006	0.609 ± 0.005
[1], x2 = 0.75	743.99 ± 0.27	735.34 ± 0.27	726.54 ± 0.28	–	–	–	0.894 ± 0.007	0.755 ± 0.006	0.642 ± 0.006
[1], x2 = 0.8	751.11 ± 0.26	742.37 ± 0.27	733.58 ± 0.27	–	–	–	0.952 ± 0.008	0.801 ± 0.007	0.678 ± 0.006
[1], x2 = 0.85	759.27 ± 0.25	750.54 ± 0.26	741.75 ± 0.27	–	–	–	1.018 ± 0.008	0.854 ± 0.007	0.72 ± 0.006
[1], x2 = 0.9	768.81 ± 0.25	760.17 ± 0.25	751.44 ± 0.26	–	–	–	1.095 ± 0.009	0.915 ± 0.008	0.769 ± 0.006
[1], x2 = 0.95	780.26 ± 0.24	771.59 ± 0.25	762.84 ± 0.25	–	–	–	1.19 ± 0.01	0.991 ± 0.008	0.828 ± 0.007
[2], x2 = 0	–	–	–	1.39404 ± 0.00031	1.389 ± 0.00031	1.38395 ± 0.00031	–	–	–
[2], x2 = 0.0502	–	–	–	1.39319 ± 0.00031	1.3881 ± 0.00031	1.38297 ± 0.00031	–	–	–
[2], x2 = 0.1	–	–	–	1.39241 ± 0.00031	1.3873 ± 0.00031	1.38217 ± 0.00031	–	–	–
[2], x2 = 0.15	–	–	–	1.39162 ± 0.00031	1.38651 ± 0.00031	1.38138 ± 0.00031	–	–	–
[2], x2 = 0.2	–	–	–	1.39081 ± 0.00031	1.38569 ± 0.00031	1.38056 ± 0.00031	–	–	–
[2], x2 = 0.25	–	–	–	1.38996 ± 0.00031	1.38485 ± 0.00031	1.37972 ± 0.00031	–	–	–
[2], x2 = 0.3	–	–	–	1.38907 ± 0.00031	1.38397 ± 0.00031	1.37885 ± 0.00031	–	–	–
[2], x2 = 0.35	–	–	–	1.38811 ± 0.00031	1.38304 ± 0.00031	1.37794 ± 0.00031	–	–	–
[2], x2 = 0.4	–	–	–	1.38709 ± 0.00031	1.38204 ± 0.00031	1.37696 ± 0.00031	–	–	–
[2], x2 = 0.45	–	–	–	1.38597 ± 0.00031	1.38099 ± 0.00031	1.37593 ± 0.00031	–	–	–
[2], x2 = 0.5	–	–	–	1.38479 ± 0.00031	1.37984 ± 0.00031	1.3748 ± 0.00031	–	–	–
[2], x2 = 0.55	–	–	–	1.3835 ± 0.00031	1.37858 ± 0.00031	1.37358 ± 0.00031	–	–	–
[2], x2 = 0.6	–	–	–	1.38209 ± 0.00031	1.37722 ± 0.00031	1.37227 ± 0.00031	–	–	–
[2], x2 = 0.65	–	–	–	1.38055 ± 0.00031	1.37573 ± 0.00031	1.37083 ± 0.00031	–	–	–
[2], x2 = 0.7	–	–	–	1.37884 ± 0.00031	1.37408 ± 0.00031	1.36922 ± 0.00031	–	–	–
[2], x2 = 0.75	–	–	–	1.37694 ± 0.00031	1.37225 ± 0.00031	1.36745 ± 0.00031	–	–	–
[2], x2 = 0.8	–	–	–	1.37484 ± 0.00031	1.3702 ± 0.00031	1.3655 ± 0.00031	–	–	–
[2], x2 = 0.85	–	–	–	1.37249 ± 0.00031	1.36792 ± 0.00031	1.3633 ± 0.00031	–	–	–
[2], x2 = 0.9	–	–	–	1.36984 ± 0.00031	1.36536 ± 0.00031	1.36085 ± 0.00031	–	–	–
[2], x2 = 0.95	–	–	–	1.36684 ± 0.00031	1.36248 ± 0.00031	1.35812 ± 0.00031	–	–	–
